Earlier results, collected in patent US12667577B2, “Pharmaceutical composition, and aprepitant injection and freeze-dried powder injection” (WISDOM PHARMACEUTICAL CO., LTD, priority 2022, dated 2026).
≈ marks a conversion by molar mass, not a printed value.

Key:
[1] = clinical data
[2] = target: human substance P neurokinin-1 (NK1) receptor (Homo sapiens, UniProt P25103)
[3] = target: T1, 5-hydroxytryptamine receptor 3 (5-HT3) (Homo sapiens, UniProt P46098)
T1 sequence (P46098 24-478): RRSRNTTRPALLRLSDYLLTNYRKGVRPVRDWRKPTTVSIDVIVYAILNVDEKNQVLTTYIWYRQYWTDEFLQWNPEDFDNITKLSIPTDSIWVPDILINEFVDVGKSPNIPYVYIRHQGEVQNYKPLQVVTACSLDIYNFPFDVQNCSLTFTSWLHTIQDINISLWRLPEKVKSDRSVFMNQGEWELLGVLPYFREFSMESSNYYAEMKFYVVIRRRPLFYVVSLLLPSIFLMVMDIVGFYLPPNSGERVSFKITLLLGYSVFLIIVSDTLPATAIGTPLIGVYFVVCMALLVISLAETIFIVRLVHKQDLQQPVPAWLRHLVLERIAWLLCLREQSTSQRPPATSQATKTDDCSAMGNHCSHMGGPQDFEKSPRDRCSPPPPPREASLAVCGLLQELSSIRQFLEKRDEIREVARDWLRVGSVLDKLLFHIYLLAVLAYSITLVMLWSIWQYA

[4] = tested on: dopamine receptor
[5] = target: T2, glucocorticoid receptor (Homo sapiens, UniProt P04150)
T2 sequence (P04150 1-777): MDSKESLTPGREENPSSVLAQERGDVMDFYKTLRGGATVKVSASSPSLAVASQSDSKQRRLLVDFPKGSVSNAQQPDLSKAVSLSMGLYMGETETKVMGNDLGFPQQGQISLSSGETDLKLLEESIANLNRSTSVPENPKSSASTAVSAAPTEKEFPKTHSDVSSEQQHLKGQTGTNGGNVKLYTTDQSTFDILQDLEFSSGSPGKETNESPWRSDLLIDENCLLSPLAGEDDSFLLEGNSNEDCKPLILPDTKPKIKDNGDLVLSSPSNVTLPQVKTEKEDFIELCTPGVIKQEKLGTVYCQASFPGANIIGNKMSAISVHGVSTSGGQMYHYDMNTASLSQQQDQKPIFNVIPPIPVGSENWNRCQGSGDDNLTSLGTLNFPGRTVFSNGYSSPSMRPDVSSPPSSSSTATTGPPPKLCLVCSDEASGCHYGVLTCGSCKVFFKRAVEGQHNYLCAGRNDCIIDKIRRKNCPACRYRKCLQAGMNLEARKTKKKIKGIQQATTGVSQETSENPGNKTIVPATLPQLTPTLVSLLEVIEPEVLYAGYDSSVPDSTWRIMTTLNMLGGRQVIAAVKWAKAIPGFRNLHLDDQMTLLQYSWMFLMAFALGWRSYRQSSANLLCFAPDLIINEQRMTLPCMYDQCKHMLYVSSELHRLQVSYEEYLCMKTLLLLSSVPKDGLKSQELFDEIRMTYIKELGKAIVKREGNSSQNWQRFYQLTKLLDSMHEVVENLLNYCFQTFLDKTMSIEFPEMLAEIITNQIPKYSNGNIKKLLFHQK

human substance P neurokinin-1 (NK1) receptor, sequence (P25103 whole entry): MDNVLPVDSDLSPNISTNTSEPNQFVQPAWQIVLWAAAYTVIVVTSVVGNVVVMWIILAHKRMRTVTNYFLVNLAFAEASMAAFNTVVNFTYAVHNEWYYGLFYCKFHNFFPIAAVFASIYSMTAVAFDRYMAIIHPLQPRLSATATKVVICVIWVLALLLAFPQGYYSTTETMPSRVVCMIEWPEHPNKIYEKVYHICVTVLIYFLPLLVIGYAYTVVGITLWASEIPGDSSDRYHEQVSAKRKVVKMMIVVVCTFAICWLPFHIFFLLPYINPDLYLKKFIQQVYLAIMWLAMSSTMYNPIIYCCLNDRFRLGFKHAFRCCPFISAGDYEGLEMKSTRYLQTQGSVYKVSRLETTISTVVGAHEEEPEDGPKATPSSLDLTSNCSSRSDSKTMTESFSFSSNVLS

- classification in biopharmaceutics (low dissolution and low permeability): Class IV
- solubility in ethanol, isopropyl acetate, and acetonitrile (room temperature): slightly soluble
- solubility in water (room temperature): 0.55 µg/mL (≈ 1.03 µM)
- affinity to NK1 receptor [2]: high-affinity
- affinity to 5-HT3 [3]: low or no affinity
- affinity to dopamine receptor [4]: low or no affinity
- affinity to glucocorticoid receptor [5]: low or no affinity
SMILES: C[C@@H](O[C@H]1OCCN(Cc2n[nH]c(=O)[nH]2)[C@H]1c1ccc(F)cc1)c1cc(C(F)(F)F)cc(C(F)(F)F)c1 [aprepitant, Aprepitant]
- adverse effect rate at injection sites [1]: 0.5%
